Measurements as given in ChEMBL document CHEMBL1201862, “PubChem BioAssay data set” (2004).
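Results reflect a 48-hour exposure of cells in 96-well plates to compound at five concentrations. At the GI50, growth is halved.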 Active and inactive are the calls of the source. Cut-off read from the data, not from the text of the source: active = GI50 up to about 1.1 µM and inactive = higher.

Tests used:
Experiment in all cases: NCI tumour cell line growth inhibition, 48 h
Malme-3M = tested on: Malme-3M
SK-MEL-28 = tested on: SK-MEL-28
MOLT-4 = tested on: MOLT-4
OVCAR-5 = tested on: OVCAR-5
SF-268 = tested on: SF-268
SK-OV-3 = tested on: SK-OV-3
ACHN = tested on: ACHN
SF-539 = tested on: SF-539
SK-MEL-2 = tested on: SK-MEL-2
MDA-N = tested on: MDA-N
OVCAR-4 = tested on: OVCAR-4
A549 = tested on: A549
CCRF-CEM = tested on: CCRF-CEM
UACC-257 = tested on: UACC-257
SNB-75 = tested on: SNB-75
UO-31 = tested on: UO-31
HCT-15 = tested on: HCT-15
NCI-H226 = tested on: NCI-H226
SN12C = tested on: SN12C
NCI-H460 = tested on: NCI-H460
Hs-578T = tested on: Hs-578T
MCF7 = tested on: MCF7
SW-620 = tested on: SW-620
RXF 393 = tested on: RXF 393
K562 = tested on: K562
SR = tested on: SR
OVCAR-3 = tested on: OVCAR-3
HOP-62 = tested on: HOP-62
UACC-62 = tested on: UACC-62
EKVX = tested on: EKVX
786-0 = tested on: 786-0
HCT-116 = tested on: HCT-116
TK-10 = tested on: TK-10
MDA-MB-435 = tested on: MDA-MB-435
M14 = tested on: M14
SK-MEL-5 = tested on: SK-MEL-5
KM12 = tested on: KM12
RPMI-8226 = tested on: RPMI-8226
U-251 = tested on: U-251
COLO 205 = tested on: COLO 205
T47D = tested on: T47D
LOX IMVI = tested on: LOX IMVI
NCI-H23 = tested on: NCI-H23
HOP-92 = tested on: HOP-92
MDA-MB-231 = tested on: MDA-MB-231
CAKI-1 = tested on: CAKI-1
BT-549 = tested on: BT-549
NCI-H522 = tested on: NCI-H522
HCC 2998 = tested on: HCC 2998
HT-29 = tested on: HT-29
NCI/ADR-RES = tested on: NCI/ADR-RES
HL-60 = tested on: HL-60
SF-295 = tested on: SF-295
PC-3 = tested on: PC-3
DU-145 = tested on: DU-145
A498 = tested on: A498
IGROV-1 = tested on: IGROV-1
SNB-19 = tested on: SNB-19
OVCAR-8 = tested on: OVCAR-8

For `COc1cc2c(cc1OC)C(=O)/C(=C/c1cc(C)c(O)c(C)c1)C2`, the GI50 (Malme-3M) was < 10 nM (active), the GI50 (SK-MEL-28) was > 75700 nM (inactive) and the GI50 (MOLT-4) was < 10 nM (active). For the same compound, the GI50 (OVCAR-5) was 1630 nM (inactive), the GI50 (SF-268) was < 14.3 nM (active) and the GI50 (SK-OV-3) was < 10 nM (active). The GI50 (ACHN) was 60.3 nM (active), the GI50 (SF-539) was < 10 nM (active) and the GI50 (SK-MEL-2) was < 10 nM (active). The GI50 (MDA-N) was < 10 nM (active), the GI50 (OVCAR-4) was > 100000 nM (inactive) and the GI50 (A549) was < 16.5 nM (active). The GI50 (CCRF-CEM) was < 10 nM (active), the GI50 (UACC-257) was 755 nM (active) and the GI50 (SNB-75) was < 10 nM (active). For the same compound, the GI50 (UO-31) was > 100000 nM (inactive), the GI50 (HCT-15) was under 10 nM and the GI50 (NCI-H226) was 23800 nM (inactive). For the same compound, the GI50 (SN12C) was 24.4 nM (active), the GI50 (NCI-H460) was < 10 nM (active) and the GI50 (Hs-578T) was < 10 nM (active). For the same compound, the GI50 (MCF7) was < 14.8 nM (active), the GI50 (SW-620) was < 10.6 nM (active) and the GI50 (RXF 393) was < 50.4 nM (active). The GI50 (K562) was < 10 nM (active), the GI50 (SR) was < 10 nM (active) and the GI50 (OVCAR-3) was 11.5 nM (active). The GI50 (HOP-62) was < 10 nM (active), the GI50 (UACC-62) was < 16.8 nM (active) and the GI50 (EKVX) was < 10 nM (active). For the same compound, the GI50 (786-0) was < 18.4 nM (active), the GI50 (HCT-116) was < 11.2 nM (active) and the GI50 (TK-10) was > 76700 nM (inactive). For the same compound, the GI50 (MDA-MB-435) was < 10 nM (active), the GI50 (M14) was < 10 nM (active) and the GI50 (SK-MEL-5) was < 10 nM (active). For the same compound, the GI50 (KM12) was < 10 nM (active), the GI50 (RPMI-8226) was < 10 nM (active) and the GI50 (U-251) was < 10 nM (active). The GI50 (COLO 205) was 5020 nM (inactive), the GI50 (T47D) was > 100000 nM (inactive) and the GI50 (LOX IMVI) was < 25.9 nM (active). The GI50 (NCI-H23) was < 10 nM (active), the GI50 (HOP-92) was > 100000 nM (inactive) and the GI50 (MDA-MB-231) was 17.1 nM (active). For the same compound, the GI50 (CAKI-1) was 80.3 nM (active), the GI50 (BT-549) was > 100000 nM (inactive) and the GI50 (NCI-H522) was < 10 nM (active). For the same compound, the GI50 (HCC 2998) was < 40.7 nM (active), the GI50 (HT-29) was 5190 nM (inactive) and the GI50 (NCI/ADR-RES) was 403 nM (active). The GI50 (HL-60) was < 10 nM (active), the GI50 (SF-295) was < 18 nM (active) and the GI50 (PC-3) was < 10 nM (active). For the same compound, the GI50 (DU-145) was < 10 nM (active), the GI50 (A498) was > 21200 nM (inactive) and the GI50 (IGROV-1) was < 16.6 nM (active).
`Cc1cc2nc(CC(C(F)(F)F)C(F)(F)F)oc2cc1C` was tested, and the GI50 (Malme-3M) was 3340 nM (inactive), the GI50 (SK-MEL-28) was 3240 nM (inactive) and the GI50 (OVCAR-5) was 7410 nM (inactive). For the same compound, the GI50 (SF-268) was 2490 nM (inactive), the GI50 (SK-OV-3) was 14100 nM (inactive) and the GI50 (ACHN) was 7260 nM (inactive). For the same compound, the GI50 (SF-539) was 2730 nM (inactive), the GI50 (SK-MEL-2) was 2810 nM (inactive) and the GI50 (MDA-N) was 1910 nM (inactive). For the same compound, the GI50 (OVCAR-4) was 2190 nM (inactive), the GI50 (A549) was 5790 nM (inactive) and the GI50 (CCRF-CEM) was 16 nM (active). For the same compound, the GI50 (UACC-257) was 4460 nM (inactive), the GI50 (SNB-75) was 1610 nM (inactive) and the GI50 (UO-31) was 7690 nM (inactive). The GI50 (HCT-15) was 3470 nM, the GI50 (NCI-H226) was 1880 nM (inactive) and the GI50 (SN12C) was 1030 nM (active). For the same compound, the GI50 (NCI-H460) was 3770 nM (inactive), the GI50 (Hs-578T) was 1830 nM (inactive) and the GI50 (MCF7) was 2540 nM (inactive). For the same compound, the GI50 (SW-620) was 608 nM (active), the GI50 (RXF 393) was 2510 nM (inactive) and the GI50 (K562) was 93.1 nM (active). For the same compound, the GI50 (SR) was 27.6 nM (active), the GI50 (OVCAR-3) was 2650 nM (inactive) and the GI50 (HOP-62) was 3480 nM (inactive). For the same compound, the GI50 (UACC-62) was 1420 nM (inactive), the GI50 (EKVX) was 2240 nM (inactive) and the GI50 (786-0) was 474 nM (active). The GI50 (HCT-116) was 1000 nM (active), the GI50 (TK-10) was 5210 nM (inactive) and the GI50 (MDA-MB-435) was 1960 nM (inactive). The GI50 (M14) was 1070 nM (active), the GI50 (SK-MEL-5) was 4320 nM (inactive) and the GI50 (KM12) was 3000 nM (inactive). For the same compound, the GI50 (RPMI-8226) was 93.1 nM (active), the GI50 (U-251) was 3150 nM (inactive) and the GI50 (COLO 205) was 1540 nM (inactive). The GI50 (SNB-19) was 5090 nM (inactive), the GI50 (T47D) was 308 nM (active) and the GI50 (LOX IMVI) was 209 nM (active). The GI50 (NCI-H23) was 1370 nM (inactive), the GI50 (HOP-92) was 7500 nM (inactive) and the GI50 (MDA-MB-231) was 2450 nM (inactive). The GI50 (CAKI-1) was 2070 nM (inactive), the GI50 (BT-549) was 452 nM (active) and the GI50 (NCI-H522) was 184 nM (active). The GI50 (OVCAR-8) was 1120 nM (active), the GI50 (HCC 2998) was 3560 nM (inactive) and the GI50 (HT-29) was 973 nM (active). For the same compound, the GI50 (NCI/ADR-RES) was 1710 nM (inactive), the GI50 (HL-60) was 968 nM (active) and the GI50 (SF-295) was 4760 nM (inactive). For the same compound, the GI50 (PC-3) was 1960 nM (inactive), the GI50 (DU-145) was 4360 nM (inactive) and the GI50 (A498) was 5710 nM (inactive). For the same compound, the GI50 (IGROV-1) was 1970 nM (inactive).
